# Assay results as given in ChEMBL document CHEMBL1201862, “PubChem BioAssay data set” (2004).
# Counter-ions that a name gives are not always drawn.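 Following 48 hours of exposure in 96-well plates, responses at five concentrations were used to interpolate endpoints linearly. GI50: concentration for 50% inhibition of growth.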 Calls of active or inactive are those of the source. Rule as the data show it: active = GI50 up to about 1.1 µM and inactive = higher.
# What was measured:
# Experiment in all cases: DTP human tumour cell line panel, 48 h
# 786-0 = system: 786-0
# A498 = system: A498
# COLO 205 = system: COLO 205
# HT-29 = system: HT-29
# KM12 = system: KM12
# NCI-H226 = system: NCI-H226
# NCI-H23 = system: NCI-H23
# OVCAR-3 = system: OVCAR-3
# OVCAR-4 = system: OVCAR-4
# OVCAR-5 = system: OVCAR-5
# OVCAR-8 = system: OVCAR-8
# RPMI-8226 = system: RPMI-8226
# RXF 393 = system: RXF 393
# SF-295 = system: SF-295
# SK-MEL-28 = system: SK-MEL-28
# SK-MEL-5 = system: SK-MEL-5
# SNB-75 = system: SNB-75
# UACC-257 = system: UACC-257
# UO-31 = system: UO-31
# T47D = system: T47D
SMILES,GI50 (786-0),GI50 (A498),GI50 (COLO 205),GI50 (HT-29),GI50 (KM12),GI50 (NCI-H226),GI50 (NCI-H23),GI50 (OVCAR-3),GI50 (OVCAR-4),GI50 (OVCAR-5),GI50 (OVCAR-8),GI50 (RPMI-8226),GI50 (RXF 393),GI50 (SF-295),GI50 (SK-MEL-28),GI50 (SK-MEL-5),GI50 (SNB-75),GI50 (UACC-257),GI50 (UO-31),GI50 (T47D)
COc1cc(CCc2cccnc2)cc(OC)c1OC,> 100 µM (inactive),> 100 µM (inactive),> 100 µM (inactive),> 100 µM (inactive),> 100 µM (inactive),> 100 µM (inactive),> 100 µM (inactive),> 100 µM (inactive),> 100 µM (inactive),38.5 µM (inactive),> 100 µM (inactive),> 100 µM (inactive),> 100 µM (inactive),> 100 µM (inactive),> 100 µM (inactive),> 100 µM (inactive),51.1 µM (inactive),> 100 µM (inactive),> 100 µM (inactive),–
CCOP(=O)(OCC)/C(C#N)=C/c1cnc[nH]1,> 100 µM (inactive),> 100 µM (inactive),> 100 µM (inactive),> 100 µM (inactive),> 100 µM (inactive),> 100 µM (inactive),> 100 µM (inactive),> 100 µM (inactive),> 100 µM (inactive),> 100 µM (inactive),> 100 µM (inactive),> 100 µM (inactive),> 100 µM (inactive),> 100 µM (inactive),> 100 µM (inactive),> 100 µM (inactive),> 100 µM (inactive),> 100 µM (inactive),> 100 µM (inactive),–
Cc1ccc(Sc2ccc(C)cc2[N+](=O)[O-])c([N+](=O)[O-])c1,> 100 µM (inactive),> 100 µM (inactive),> 100 µM (inactive),> 10 µM (inactive),> 100 µM (inactive),> 100 µM (inactive),> 100 µM (inactive),> 100 µM (inactive),> 100 µM (inactive),> 100 µM (inactive),> 100 µM (inactive),> 100 µM (inactive),> 100 µM (inactive),> 100 µM (inactive),> 100 µM (inactive),> 100 µM (inactive),46.5 µM (inactive),> 10 µM (inactive),> 100 µM (inactive),–
Cc1cc(=O)n(-c2ccccc2)c(=O)o1,> 100 µM (inactive),> 100 µM (inactive),> 100 µM (inactive),> 100 µM (inactive),> 100 µM (inactive),> 100 µM (inactive),> 100 µM (inactive),> 100 µM (inactive),> 100 µM (inactive),> 100 µM (inactive),–,> 100 µM (inactive),> 100 µM (inactive),49.5 µM (inactive),> 100 µM (inactive),> 100 µM (inactive),> 100 µM (inactive),> 100 µM (inactive),> 100 µM (inactive),–
CC(=O)OCC1OC(N2C(=O)C(=O)c3ccccc32)C(OC(C)=O)C(OC(C)=O)C1OC(C)=O (stereo not drawn),> 100 µM (inactive),> 100 µM (inactive),> 100 µM (inactive),> 100 µM (inactive),> 100 µM (inactive),> 100 µM (inactive),> 100 µM (inactive),> 100 µM (inactive),> 100 µM (inactive),–,> 100 µM (inactive),> 100 µM (inactive),> 100 µM (inactive),> 100 µM (inactive),> 100 µM (inactive),> 100 µM (inactive),> 100 µM (inactive),> 100 µM (inactive),> 100 µM (inactive),–
CN1C/C(=C\c2ccccc2)C2=NN(C(N)=S)[C@H](c3ccccc3)[C@@H]2C1,64 µM (inactive),> 100 µM (inactive),38.5 µM (inactive),32.9 µM (inactive),54 µM (inactive),75.5 µM (inactive),56.4 µM (inactive),> 100 µM (inactive),56.6 µM (inactive),> 100 µM (inactive),–,0.276 µM (active),34.4 µM (inactive),87.9 µM (inactive),> 100 µM (inactive),–,–,59.2 µM (inactive),36.9 µM (inactive),–
O=C1C2C3C=C4c5ccccc5N(c5ccccc5)C4(C2C(=O)N1c1ccc(Cl)cc1)[C@H]1C(=O)N(c2ccc(Cl)cc2)C(=O)[C@@H]31 (stereo partly drawn),> 100 µM (inactive),> 100 µM (inactive),64.7 µM (inactive),> 100 µM (inactive),> 100 µM (inactive),> 100 µM (inactive),> 100 µM (inactive),> 100 µM (inactive),> 100 µM (inactive),> 100 µM (inactive),> 100 µM (inactive),22.2 µM (inactive),> 100 µM (inactive),> 100 µM (inactive),–,> 100 µM (inactive),> 100 µM (inactive),> 100 µM (inactive),> 100 µM (inactive),–
Cc1cccc(C)c1NC(=O)CCC(=O)CC(=O)C(C)C,> 100 µM (inactive),> 100 µM (inactive),> 100 µM (inactive),> 100 µM (inactive),> 100 µM (inactive),> 100 µM (inactive),> 100 µM (inactive),> 100 µM (inactive),> 100 µM (inactive),> 100 µM (inactive),> 100 µM (inactive),> 100 µM (inactive),> 100 µM (inactive),> 100 µM (inactive),> 100 µM (inactive),> 100 µM (inactive),> 100 µM (inactive),> 100 µM (inactive),> 100 µM (inactive),–
CC(C)OC(=O)C1Cc2c([nH]c3ccccc23)C(c2ccccc2)N1 (stereo not drawn),27.7 µM (inactive),88.5 µM (inactive),> 100 µM (inactive),98.4 µM (inactive),97.1 µM (inactive),> 100 µM (inactive),67.1 µM (inactive),> 100 µM (inactive),79.8 µM (inactive),> 100 µM (inactive),> 100 µM (inactive),84.9 µM (inactive),23.8 µM (inactive),> 100 µM (inactive),42.5 µM (inactive),91.2 µM (inactive),18.3 µM (inactive),68.5 µM (inactive),18 µM (inactive),–
CCOC12OC3=C(CC1CC1=C(CCC1=O)O2)C(=O)CC3 (stereo not drawn),> 100 µM (inactive),> 100 µM (inactive),> 100 µM (inactive),> 100 µM (inactive),> 100 µM (inactive),> 100 µM (inactive),> 100 µM (inactive),> 100 µM (inactive),> 100 µM (inactive),> 100 µM (inactive),> 100 µM (inactive),> 100 µM (inactive),> 100 µM (inactive),> 100 µM (inactive),–,> 100 µM (inactive),> 100 µM (inactive),> 100 µM (inactive),> 100 µM (inactive),–
CC1=CC(=O)NP(=O)(Oc2ccc(C)cc2)N1 (stereo not drawn),> 100 µM (inactive),> 100 µM (inactive),> 100 µM (inactive),> 100 µM (inactive),> 100 µM (inactive),> 100 µM (inactive),> 100 µM (inactive),> 100 µM (inactive),> 100 µM (inactive),> 100 µM (inactive),> 100 µM (inactive),> 100 µM (inactive),–,> 100 µM (inactive),> 100 µM (inactive),> 100 µM (inactive),> 100 µM (inactive),> 100 µM (inactive),> 100 µM (inactive),–
CC[C@]12CN3CCc4c([nH]c5ccccc45)[C@@](C(=O)OC)(c4cc5c(cc4OC)N(C)[C@H]4[C@@](O)(C(=O)OC)[C@H](OC(C)=O)[C@]6(CC)C=CCN7CC[C@]54[C@@H]76)CC(C3)[C@H]1O2 (stereo partly drawn) [VINLEUROSINE SULFATE],< 0.01 µM (active),0.863 µM (active),< 0.01 µM (active),< 0.0172 µM (active),< 0.0276 µM (active),0.221 µM (active),0.126 µM (active),0.0104 µM (active),< 0.01 µM (active),0.804 µM (active),0.449 µM (active),0.0581 µM (active),0.158 µM (active),0.0401 µM (active),0.254 µM (active),< 0.01 µM (active),0.0716 µM (active),3.24 µM (inactive),5.57 µM (inactive),–
O=C(C=P(c1ccccc1)(c1ccccc1)c1ccccc1)CC(=S)CC(=O)C=P(c1ccccc1)(c1ccccc1)c1ccccc1,4.16 µM (inactive),4.14 µM (inactive),1.89 µM (inactive),4.14 µM (inactive),3.81 µM (inactive),5.85 µM (inactive),3.14 µM (inactive),2.61 µM (inactive),7.5 µM (inactive),18.2 µM (inactive),3.56 µM (inactive),2.24 µM (inactive),5.61 µM (inactive),3.16 µM (inactive),8.22 µM (inactive),2.81 µM (inactive),–,3.15 µM (inactive),29.3 µM (inactive),–
COc1cccc(C2c3cc4c(cc3OC(N3CCCC3)C2c2ccccc2)OCO4)c1O (stereo not drawn),8.32 µM (inactive),–,7.24 µM (inactive),7.43 µM (inactive),2.76 µM (inactive),–,14 µM (inactive),3.34 µM (inactive),–,25.2 µM (inactive),10.3 µM (inactive),5.69 µM (inactive),–,3.74 µM (inactive),13 µM (inactive),10.8 µM (inactive),5.74 µM (inactive),11.4 µM (inactive),3.46 µM (inactive),5.97 µM (inactive)
CC[C@H]1[C@@H](C)C=C[C@@H](C)N1S(=O)(=O)c1ccc(C)cc1,> 100 µM (inactive),> 100 µM (inactive),> 100 µM (inactive),> 100 µM (inactive),> 100 µM (inactive),> 100 µM (inactive),> 100 µM (inactive),> 100 µM (inactive),> 100 µM (inactive),> 100 µM (inactive),> 100 µM (inactive),34.1 µM (inactive),48.6 µM (inactive),95.9 µM (inactive),> 100 µM (inactive),92 µM (inactive),> 100 µM (inactive),> 100 µM (inactive),5.26 µM (inactive),–
